Experimental data taken from ChEMBL document CHEMBL1132520, “Antimalarial activity of 3-hydroxyalkyl-2-methylene-propionic acid derivatives” (1999).
Activity calls are given as the source filed them. The rule behind the calls is not given here.

Tests used:
Mus musculus [1] = experiment: In vivo antimalarial activity against Plasmodium berghei in mice (Mus musculus); Inactive; type: functional, organism-based
Mus musculus [2] = experiment: Antimalarial activity against Plasmodium berghei evaluated in terms of mean survival time for mice (Mus musculus) at a dose of 160 mg/kg; type: functional
Mus musculus [3] = experiment: Antimalarial activity against Plasmodium berghei evaluated in terms of mean survival time for mice (Mus musculus) at a dose of 40 mg/kg; type: functional
Mus musculus [4] = experiment: Antimalarial activity against Plasmodium berghei evaluated in terms of mean survival time for mice (Mus musculus) at a dose of 80 mg/kg; type: functional
Mus musculus [5] = experiment: Anti-malarial activity against Plasmodium berghei evaluated in terms of mean survival time for mice (Mus musculus) at a dose of 20 mg/kg; type: functional
Plasmodium falciparum [6] = experiment: In vitro antimalarial activity for Plasmodium falciparum at 0.50 uM/well dose at 24 hrs in Schizont maturation assay; type: functional
Plasmodium falciparum [7] = experiment: In vitro antimalarial activity for Plasmodium falciparum at 20 uM/well dose at 24 hrs in Schizont maturation assay; type: functional
Plasmodium falciparum [8] = experiment: In vitro antimalarial activity for Plasmodium falciparum at 100 uM/well dose at 24 hrs in Schizont maturation assay; type: functional
Plasmodium falciparum [9] = experiment: In vitro inhibition of Plasmodium falciparum at 100 uM/well dose at 72 hrs in total parasite growth assay; type: functional
Plasmodium falciparum [10] = experiment: In vitro inhibition of Plasmodium falciparum at 10 uM/well dose at 72 hrs in total parasite growth assay; type: functional
Plasmodium falciparum [11] = experiment: In vitro inhibition of Plasmodium falciparum at 50 uM/well dose at 72 hrs in total parasite growth assay; type: functional
Plasmodium falciparum [12] = experiment: In vitro antimalarial activity for Plasmodium falciparum at 0.10 uM/well dose at 24 hrs in Schizont maturation assay; type: functional
Plasmodium falciparum [13] = experiment: In vitro antimalarial activity for Plasmodium falciparum at 5 uM/well dose at 24 hrs in Schizont maturation assay; type: functional
Plasmodium falciparum [14] = experiment: In vitro inhibition of Plasmodium falciparum at 5 uM/well dose at 72 hrs in total parasite growth assay; type: functional
Plasmodium falciparum [15] = experiment: In vitro antimalarial activity for Plasmodium falciparum at 0.25 uM/well dose at 24 hrs in Schizont maturation assay; type: functional
Plasmodium falciparum [16] = experiment: In vitro inhibition of Plasmodium falciparum at 0.25 uM/well dose at 72 hrs in total parasite growth assay; type: functional
Plasmodium falciparum [17] = experiment: In vitro antimalarial activity for Plasmodium falciparum at 2.5 uM/well dose at 24 hrs in Schizont maturation assay; type: functional
Plasmodium falciparum [18] = experiment: In vitro inhibition of Plasmodium falciparum at 0.5 uM/well dose at 72 hrs in total parasite growth assay; type: functional
Plasmodium falciparum [19] = experiment: In vitro inhibition of Plasmodium falciparum at 2.5 uM/well dose at 72 hrs in total parasite growth assay; type: functional
Plasmodium falciparum [20] = experiment: In vitro antimalarial activity for Plasmodium falciparum at 10 uM/well dose at 24 hrs in Schizont maturation assay; type: functional
Plasmodium falciparum [21] = experiment: In vitro inhibition of Plasmodium falciparum at 1.0 uM/well dose at 72 hrs in total parasite growth assay; type: functional
Plasmodium falciparum [22] = experiment: In vitro antimalarial activity for Plasmodium falciparum at 1 uM/well dose at 24 hrs in Schizont maturation assay; type: functional
Plasmodium falciparum [23] = experiment: In vitro antimalarial activity for Plasmodium falciparum at 50 uM/well dose at 24 hrs in Schizont maturation assay; type: functional
Plasmodium falciparum [24] = experiment: In vitro inhibition of Plasmodium falciparum at 20 uM/well dose at 72 hrs in total parasite growth assay; Not determined; type: functional
Plasmodium falciparum [25] = experiment: In vitro antimalarial activity for Plasmodium falciparum at 500 uM/well dose at 24 hrs in Schizont maturation assay; type: functional
Plasmodium falciparum [26] = experiment: In vitro antimalarial activity for chloroquine-resistant Plasmodium falciparum at 20 uM/well dose at 24 hrs in Schizont maturation assay; type: functional
Plasmodium falciparum [27] = experiment: In vitro inhibition of Plasmodium falciparum at 25 uM/well dose at 72 hrs in total parasite growth assay; type: functional
Plasmodium falciparum [28] = experiment: In vitro antimalarial activity for chloroquine-resistant Plasmodium falciparum at 1 uM/well dose at 24 hrs in Schizont maturation assay; type: functional
Plasmodium falciparum [29] = experiment: In vitro antimalarial activity for chloroquine-resistant Plasmodium falciparum at 50 uM/well dose at 24 hrs in Schizont maturation assay; type: functional
Mus musculus [30] = experiment: In vivo anti-malarial activity against Plasmodium berghei in mice (Mus musculus) at a dose of 160 mg/kg; Active; type: functional, organism-based; design: dose 160 mg/kg
Plasmodium falciparum [31] = experiment: In vitro antimalarial activity for chloroquine-resistant Plasmodium falciparum at 0.25 uM/well dose at 24 hrs in Schizont maturation assay; type: functional
Plasmodium falciparum [32] = experiment: In vitro antimalarial activity for chloroquine-resistant Plasmodium falciparum at 5 uM/well dose at 24 hrs in Schizont maturation assay; type: functional
Plasmodium falciparum [33] = experiment: In vitro inhibition of chloroquine-resistant Plasmodium falciparum at 1.0 uM/well dose at 72 hrs in total parasite growth assay; type: functional
Plasmodium falciparum [34] = experiment: In vitro antimalarial activity for chloroquine-resistant Plasmodium falciparum at 0.10 uM/well dose at 24 hrs in Schizont maturation assay; type: functional
Plasmodium falciparum [35] = experiment: In vitro inhibition of chloroquine-resistant Plasmodium falciparum at 0.25 uM/well dose at 72 hrs in total parasite growth assay; type: functional
Plasmodium falciparum [36] = experiment: In vitro inhibition of chloroquine-resistant Plasmodium falciparum at 0.5 uM/well dose at 72 hrs in total parasite growth assay; type: functional
Plasmodium falciparum [37] = experiment: In vitro inhibition of Plasmodium falciparum at 20 uM/well dose at 72 hrs in total parasite growth assay; type: functional
Plasmodium falciparum [38] = experiment: In vitro antimalarial activity for chloroquine-resistant Plasmodium falciparum at 0.5 uM/well dose at 24 hrs in Schizont maturation assay; type: functional
Plasmodium falciparum [39] = experiment: In vitro antimalarial activity for chloroquine-resistant Plasmodium falciparum at 10 uM/well dose at 24 hrs in Schizont maturation assay; type: functional
Plasmodium falciparum [40] = experiment: In vitro antimalarial activity for chloroquine-resistant Plasmodium falciparum at 100 uM/well dose at 24 hrs in Schizont maturation assay; type: functional
Plasmodium falciparum [41] = experiment: In vitro antimalarial activity for chloroquine-resistant Plasmodium falciparum at 2.5 uM/well dose at 24 hrs in Schizont maturation assay; type: functional

Row | SMILES | Activity (Mus musculus [1]) | Mean survival time (Mus musculus [2]) | Mean survival time (Mus musculus [3]) | Mean survival time (Mus musculus [4]) | Mean survival time (Mus musculus [5]) | inhibition at 0.5 µM (Plasmodium falciparum [6]) | inhibition at 20 µM (Plasmodium falciparum [7]) | inhibition at 100 µM (Plasmodium falciparum [8]) | PGI (Plasmodium falciparum [9]) | PGI (Plasmodium falciparum [10]) | PGI (Plasmodium falciparum [11]) | inhibition at 0.1 µM (Plasmodium falciparum [12]) | inhibition at 5 µM (Plasmodium falciparum [13]) | PGI (Plasmodium falciparum [14]) | inhibition at 0.25 µM (Plasmodium falciparum [15]) | PGI (Plasmodium falciparum [16]) | inhibition at 2.5 µM (Plasmodium falciparum [17]) | inhibition at 10 µM (Plasmodium falciparum [20]) | inhibition at 1 µM (Plasmodium falciparum [22]) | inhibition at 50 µM (Plasmodium falciparum [23]) | further results
1 | C=C(C#N)C(O)/C=C(\C)CCC=C(C)C (stereo not drawn) | inactive | 11.6 days | 8.6 days | 9.8 days | 7.3 days | – | – | – | – | – | – | – | – | – | – | – | – | – | – | – | –
2 | C=C(C(=O)OC)C(O)c1cccnc1 (stereo not drawn) | – | – | – | – | – | 29% | 100% | 100% | 100% | 100% | 100% | 0% | 100% | 92.5% | 5% | 5% | 64% | 100% | 43% | 100% | PGI (Plasmodium falciparum [18]): 25%; PGI (Plasmodium falciparum [19]): 75%; PGI (Plasmodium falciparum [21]): 50%; PGI (Plasmodium falciparum [24]): 100%
3 | C=C(C(=O)OC)C(O)c1ccc([N+](=O)[O-])cc1 (stereo not drawn) | – | – | – | – | – | – | – | 81.6% | – | – | – | – | 18.4% | – | – | – | – | 44.7% | 2.6% | 52.6% | inhibition at 500 µM (Plasmodium falciparum [25]): 100%
4 | C=C(C(=O)OC)C(O)c1ccccc1 (stereo not drawn) | inactive | 12 days | 7 days | 10.2 days | 6 days | 7% | 100% | 100% | 100% | 100% | 100% | 0% | 93% | 100% | 0% | 0% | 64% | 100% | 43% | 100% | PGI (Plasmodium falciparum [18]): 7.5%; PGI (Plasmodium falciparum [19]): 62.5%; PGI (Plasmodium falciparum [21]): 40%; PGI (Plasmodium falciparum [24]): 100%
5 | C=C(C#N)C(O)c1cc(OC)c(OC)c(OC)c1 (stereo not drawn) | – | 12.4 days | 7.6 days | 10.4 days | 6 days | 42.4% | 100% | 100% | 100% | 100% | 100% | 0% | 82.4% | 100% | 30% | 73% | 76.5% | 100% | 64% | 100% | inhibition at 20 µM (Plasmodium falciparum [26]): 100%; PGI (Plasmodium falciparum [27]): 100%; inhibition at 1 µM (Plasmodium falciparum [28]): 65%; inhibition at 50 µM (Plasmodium falciparum [29]): 100%; Activity (Mus musculus [30]): Active; inhibition at 500 µM (Plasmodium falciparum [25]): 100%; inhibition at 0.25 µM (Plasmodium falciparum [31]): 30%; inhibition at 5 µM (Plasmodium falciparum [32]): 81%; PGI (Plasmodium falciparum [33]): 90%; inhibition at 0.1 µM (Plasmodium falciparum [34]): 4.2%; PGI (Plasmodium falciparum [35]): 70%; PGI (Plasmodium falciparum [36]): 81%; PGI (Plasmodium falciparum [37]): 100%; PGI (Plasmodium falciparum [18]): 86%; inhibition at 0.5 µM (Plasmodium falciparum [38]): 48.6%; PGI (Plasmodium falciparum [19]): 100%; inhibition at 10 µM (Plasmodium falciparum [39]): 100%; PGI (Plasmodium falciparum [21]): 94%; inhibition at 100 µM (Plasmodium falciparum [40]): 100%; inhibition at 2.5 µM (Plasmodium falciparum [41]): 69%
6 | C=C(C(=O)OC)C(O)/C=C(\C)CCC=C(C)C (stereo not drawn) | inactive | 11.4 days | 8.4 days | 9.6 days | 7.2 days | – | – | – | – | – | – | – | – | – | – | – | – | – | – | – | –
